Source: patent publication US10166241B2, “Combination Therapy III” (TURUN YLIOPISTO, priority 2012, dated 2019)

Assays:
T98G glioblastoma cells [1] = test: Apoptosis assay by sub-G0/G1 fraction estimation (apoptotic nuclear fragmentation); type: cell-based, human; details: T98G cells transfected with PME-1 specific dsRNA (so in the source)
Method: Apoptosis Assay by Sub-G0/G1 Fraction Estimation: […] After 24 hrs of treatment, both floating and adherent cells were harvested by centrifugation. […] The flow cytometric analysis of PI stained nuclei was performed and the recorded data was analyzed using a FACScan flow cytometer and software (Becton Dickinson) respectively. […] The treatments were given 48 hrs after transfection. Following 24 hrs of drug treatment the cells were lysed in hypotonic buffer, and their nuclei were stained with propidium iodide. The stained cell lysates were analysed to estimate the sub-G0/G1 fraction of fragmented nuclei by flow cytometry (FACS) (FIG. 1B).

[2] = tested on: U87MG-luciferase glioblastoma cells; test: Colony formation assay in U87MG-luciferase cells; type: cell-based; details: HDAC4 siRNA 48 hrs, then drug 48 hrs (combination)
Description: (§1) Cells plated in very low density (4-6×10^3) in 6-well plates were allowed to grow for about 7 days until they form small colonies. These cells were then transfected with Scrambled or HDAC4 siRNA using Lipofectamine RNAiMAX reagent (Invitrogen) according to the manufacturer's instructions. After 48 hrs, treatments were given with indicated concentration of chemical drugs for another 48 hrs. Cell colonies were washed with PBS, fixed with 3.7% formaldehyde and stained with 0.2% crystal violet solution (made in 10% ethanol) for 15 minutes at room temperature each. Excess stain was removed by repeated washings with PBS. Plates were dried and pictures were taken with Epson perfection V700 scanner and analysed with ImageJ.
(§2) The efficacy of the selected potent drugs was then tested by colony formation assay in […] T98G, and highly-tumorigenic U87MG-luciferase (luciferase expressing U87MG cells) glioblastoma cell lines. For this experiment, the cells were grown in 6-well plates in low density until the formation of small colonies which were then transfected with Scrambled or HDAC4 specific siRNA for 48 hrs followed by treatment with STS, PKC412, K252a, UCN-01 and CEP-701 at the indicated concentrations for another 48 hrs.

T98G glioblastoma cells [3] = test: Colony formation assay in T98G cells; type: cell-based, human
Description: as §1, §2

[4] = HDAC4.2 siRNA transfected cells treated with drug

Row | Structure (SMILES) | Potentiation % (Scale) (T98G glioblastoma cells [1]; drug 5 μM) | Potentiation % (amount of apoptotic nuclear fragmentation) (T98G glioblastoma cells [1]; drug 5 μM) | other results
1 | O=C1NC(=O)c2c1c1c3ccccc3[nH]c1c1[nH]c3ccccc3c21 [Arcyriaflavin A, 12,13-Dihydro-5H-indolo [2,3-a] pyrrolo[3,4-c] carbazole-5,7(6H)-dione] | − ((−) 0-20%) | 5-10% | –
2 | C[C@]12O[C@H](C[C@]1(O)CO)n1c3ccccc3c3c4c(c5c6ccccc6n2c5c31)CNC4=O [CEP-701, (9S,10S,12R)-2,3,9,10,11,12-Hexahydro-10-hydroxy-10-(hydroxyme-thyl)-9-methyl-9,12-epoxy-1H-diindolo [1,2,3-fg:3′,2′,1′-kl] pyrrolo[3,4-i][1, 6] benzo di-azocin-1-one] | +++ ((+++) 60-80%) | 70-80% | colony growth [2]: less effective; Potentiation % (Scale) (T98G glioblastoma cells [1]; drug 3.5 μM): ++ ((++) 40-60%); Potentiation % (amount of apoptotic nuclear fragmentation) (T98G glioblastoma cells [1]; drug 3.5 μM): 40-50%
3 | Cn1cc(C2=C(c3cn(C4CCN(Cc5ccccn5)CC4)c4ccccc34)C(=O)NC2=O)c2ccccc21 [Enzastaurin, 3-(1-Methyl-1H-indol-3-yl)-4-(1-(1-(2-pyridinylme-thyl)-4-piperidinyl)-1H-indol-3-yl)-1H-pyrrole-2,5-dione] | − ((−) 0-20%) | 10-20% | –
4 | Cn1c2ccccc2c2c3c(c4c5ccccc5n(CCC#N)c4c21)CNC3=O [GÖ-6976, 12-(2-Cyanoethyl)-6,7,12,13-tetrahydro-13-methyl-5-oxo-5H-indolo[2,3-a]pyrrolo[3,4-c]carbazole] | − ((−) 0-20%) | 10-20% | –
5 | COC(=O)[C@@]1(O)C[C@H]2O[C@]1(C)n1c3ccccc3c3c4c(c5c6ccccc6n2c5c31)C(=O)NC4 [K252a, (9S,10R,12R)-2,3,9,10,11,12-Hexahydro-10-hydroxy-9-methyl-1-oxo-9,12-epoxy-1H-diindolo [1,2,3-fg:3′,2′,1′-kl] pyrrolo[3,4-i][1,6] benzodi-azocine-10-carboxylic acid methyl ester] | ++++ ((++++) 80-100%) | 80-90% | colony growth [2]: very potent in reducing the colony growth; Potentiation % (Scale) (T98G glioblastoma cells [1]; drug 3.5 μM): ++ ((++) 40-60%); Potentiation % (amount of apoptotic nuclear fragmentation) (T98G glioblastoma cells [1]; drug 3.5 μM): 50-60%; colony growth (T98G glioblastoma cells [3]; HDAC4 siRNA 48 hrs, then drug 48 hrs (combination)): very potent in reducing the colony growth; colony growth (T98G glioblastoma cells [3]; [4]): reduction in the colony growth
6 | O=C1NCc2c1c1c3ccccc3[nH]c1c1[nH]c3ccccc3c21 [K252c, 6,7,12,13-Tetrahydro-5H-indolo[2,3-a]pyrrolo[3,4-c] carbazol-5-one] | − ((−) 0-20%) | 10-20% | –
7 | CO[C@@H]1[C@H](N(C)C(=O)c2ccccc2)C[C@H]2O[C@@H]1n1c3ccccc3c3c4c(c5c6ccccc6n2c5c31)C(=O)NC4 [PKC412, [9S-(9α,10β,11β, 13α)]-N-(2,3,10, 11,12,13-Hexahydro-10-methoxy-9-methyl-1-oxo-9,13-epoxy-1 H,9H-diindolo [1,2,3-gh:3′,2′,1′-lm]pyrrolo [3,4-j][1,7]benzodiazonin-11-yl)-N-methyl ben-zamide] | ++ ((++) 40-60%) | 50-60% | colony growth (T98G glioblastoma cells [3]; [4]): reduction in the colony growth
8 | COC1C(CO)OC(n2c3c(Cl)cccc3c3c4c(c5c6cccc(Cl)c6[nH]c5c32)C(=O)NC4=O)C(O)C1O (stereo not drawn) [Rebeccamycin, 5h-indolo(2,3-a)pyrrolo(3,4-c)carbazole-5,7(6h)-dione,1,11-dichloro-12,13-dihy;dro-12-(4-o-methyl-beta-d-glucopyra-nosyl)] | − ((−) 0-20%) | 5-10% | –
9 | O=C1NC(=O)c2c1c1c3ccccc3n3c1c1c2c2ccccc2n1C1CCC3O1 [SB-218078, 9,10,11,12-Tetrahydro-9,12-epoxy-1H-diindolo [1,2.3-fg:3′,2′,1′-kl] pyrrolo [3,4-i][1,6] benzodi-azocine-1,3(2H)-dione] | + ((+) 20-40%) | 20-30% | –
10 | CN[C@@H]1C[C@H]2O[C@@](C)([C@@H]1OC)n1c3ccccc3c3c4c(c5c6ccccc6n2c5c31)C(=O)NC4 [Staurosporine, [9S-(9α,10β,11β, 13α)]-2,3,10,11, 12,13-Hexa-hydro-10-methoxy-9-methyl-11-(methylamino)-9,13-epoxy-1H,9H-diindolo [1,2,3-gh:3′,2′,1′-lm] pyrrolo [3,4-j][1,7] benzo diazonin-1-one] | – | – | Potentiation % (Scale) (T98G glioblastoma cells [1]; drug 50 nM): + ((+) 20-40%); Potentiation % (amount of apoptotic nuclear fragmentation) (T98G glioblastoma cells [1]; drug 50 nM): 30-40%; colony growth (T98G glioblastoma cells [3]; [4]): reduction in the colony growth
11 | CN[C@@H]1C[C@H]2O[C@@](C)([C@@H]1OC)n1c3ccccc3c3c4c(c5c6ccccc6n2c5c31)C(=O)N[C@H]4O [UCN-01, (9S)-2,3,10,11,12,13-Hexahydro-3α-hydroxy-10α-methoxy-9-methyl-11α-methyl amino-9β,13β-epoxy-1H,9H-diindolo [1,2,3-gh:3′,2′,1′-lm] pyrrolo [3,4-j][1,7] benzo diazonin-1-one] | – | – | Potentiation % (Scale) (T98G glioblastoma cells [1]; drug 1.5 μM): + ((+) 20-40%); Potentiation % (amount of apoptotic nuclear fragmentation) (T98G glioblastoma cells [1]; drug 1.5 μM): 20-30%; Potentiation % (Scale) (T98G glioblastoma cells [1]; drug 2.5 μM): +++ ((+++) 60-80%); Potentiation % (amount of apoptotic nuclear fragmentation) (T98G glioblastoma cells [1]; drug 2.5 μM): 70-80%
